According to patent US11008346B2, “Beta-lactamase inhibitors” (priority 2014, dated 2021):

Experiments:
[1] = test system: E. coli ESBL4 expressing CTX-M-15; experiment: broth microdilution MIC, E. coli CTX-M-15; format: cell-based; settings: for MIC of exemplary compounds in presence of fixed β-lactams, E. coli ESBL4 CTX-M-15: Fixed CAZ (ceftazidime) 4 μg/mL
From the text: (§1) To determine the ability of test compounds to potentiate the inhibition of the growth of bacterial strains that produce beta-lactamase enzymes, classic cell based broth microdilution MIC assays were employed. Six bacteria strains producing beta-lactamase enzymes were used: E. coli expressing the Class A Extended Spectrum Beta-Lactamase (ESBL) CTX-M-15, E. cloacae expressing the Class C P99, K. pneumoniae expressing the Class A carbapenemase KPC-3, P. aeruginosa expressing the Class B carbapenemase VIM-2, K pneumoniae expressing the class A carbapenemase KPC-2 and the class B carbapenemase VIM-4, and S. aureus producing the Class A penicillinase PC-1. The assay was conducted in Cation Adjusted Mueller Hinton Broth (CAMHB, BD #212322, BD Diagnostic Systems, Sparks, Md.). Bacteria strains were grown for 3-5 hours in CAMBH broth. Test compounds were added to a microtiter plate in 2-fold serial dilutions in CAMHB in a final concentration range of 32 μg/mL to 0.25 μg/ml. An overlay of CAMHB containing a Beta-lactam was added to the compounds at a final static concentration of 4 μg/ml. […] In addition to the titration of test compounds the MICs of a panel of control beta-lactams is also tested to ensure the strains are behaving consistently from test to test. Once the test compound and antibiotics are added the plates can be inoculated according to CLSI broth microdilution method. After inoculation the plates are incubated for 16-20 hours at 37° C., then the Minimal Inhibitory Concentration (MIC) of the test compound is determined visually.
(§2) Using the methodology described above, examples of the current invention were evaluated for their ability to inhibit the growth of β-lactamase-producing bacteria in the presence of a β-lactam antibiotic.
(§3) Representative results are shown in Table 4 where A represents an MIC of the fixed β-lactam antibiotic in the presence of >32 µg/mL of a β-lactamase inhibitor of exemplary compounds, B represents the MIC in the presence of between 8 and 32 µg/mL of a β-lactamase inhibitor of exemplary compounds, and C represents the MIC in the presence of ≤4 µg/mL of a β-lactamase inhibitor of exemplary compounds. NT=Not Tested.

[2] = test system: E. cloacae 144200 expressing Class C P99 AmpC; experiment: broth microdilution MIC, E. cloacae P99; format: cell-based; settings: for MIC of exemplary compounds in presence of fixed β-lactams, E. cl. 144200 p99 AmpC: Fixed CAZ (ceftazidime) 4 μg/mL
From the text: as §1, §2, §3

SHV-5 β-lactamase = target: T1, SHV-5 β-lactamase (Klebsiella pneumoniae, UniProt P0A3M1); experiment: β-lactamase enzyme inhibition, SHV-5; format: biochemical
T1 construct: made in house; host or cells: E. coli BL21(DE3)
T1 sequence (P0A3M1 22-286): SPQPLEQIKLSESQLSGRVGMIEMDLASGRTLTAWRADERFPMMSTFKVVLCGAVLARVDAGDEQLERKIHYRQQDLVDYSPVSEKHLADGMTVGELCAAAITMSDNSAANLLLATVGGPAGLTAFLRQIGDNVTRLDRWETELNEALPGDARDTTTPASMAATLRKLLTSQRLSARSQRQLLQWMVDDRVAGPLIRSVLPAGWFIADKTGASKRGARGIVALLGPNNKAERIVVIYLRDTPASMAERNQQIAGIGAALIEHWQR
Description: (§4) For SHV-5, Kpc-2, p99AmpC and OXA-1 β-lactamases, E. coli BL21(DE3) bacterial cells carrying expression plasmids (expressed as native untagged proteins) for the individual β-lactamases were grown in 1 L of Superbroth (Teknova Inc. Hollister, Calif.) supplemented with 100 μg/ml kanamycin selection and 1×5052 (0.5% glycerol, 0.05% glucose and 0.2% α-lactose) at 35° C. for 18-20 hours. Cells were harvested by centrifugation (4,000×g, 4° C., 20 min), resuspended in 50 ml of 10 mM HEPES pH 7.5 ( 1/20 of the initial volume). The cells were lysed by sonication (5 pulses of 45 seconds) at 45 W on ice. The lysates were clarified by centrifugation at 10,000×g for 40 minutes at 4° C. Samples were diluted 5-fold in 50 mM sodium acetate pH 5.0, stored overnight at 4° C., after which they were centrifuged at 10,000×g for 30 minutes to clarify, and filtered through 0.45 μm filters. The samples were loaded onto a 5 ml Capto S sepharose cation exchange column (GE Healthcare) pre-equilibrated with 50 mM sodium acetate pH 5.0. The column was washed with 5 column volumes of 50 mM sodium acetate pH 5.0 to wash out unbound protein and a linear gradient of NaCl (0 to 500 mM) was used to elute the protein (over 16 CV) from the column. Fractions were assayed for […] activity using Centa (Calbiochem, Gibbstown, N.J.) or Nitrocefin (EMD Millipore chemicals, Darmstadt, Germany) as a reporter β-lactamase substrate for activity in the isolated fractions. Active fractions were pooled, concentrated and further purified by gel filtration chromatography on a Superdex 75 prep grade gel filtration column (GE Healthcare, Piscataway, N.J.) pre-equilibrated in 50 mM Hepes pH 7.5, 150 mM NaCl. Active fractions were pooled, concentrated, and quantitated by BCA protein determination (Thermo Scientific, Rockford, Ill.), dialyzed into PBS and frozen at −80° C. in 20% glycerol until use.
(§5) An equal volume of diluted enzyme stock was added, and the plates were incubated at 37° C. for 15 min. Nitrocefin was used as substrate for p99 AmpC, VIM-2 and OXA-1 and dispensed into each well at a final concentration of 100 μM. Absorbance at 486 nm was immediately monitored for 10 min using a Biotek Powerwave XS2 microplate spectrophotometer using the GEN5 software package (Biotek Instruments, Winooski Vt.). In an analogous fashion, imipenem was used as substrate for KPC-2 and Cefotaxime was used for SHV-5, while changes in absorbance upon hydrolysis of the β-lactam ring were monitored at 300 nm and 260 nm respectively in UV-transparent 96-well microtiter assay plates. Maximum rates of hydrolysis were compared to those in control wells (without inhibitors), and percentages of enzyme inhibition were calculated for each concentration of inhibitor. The concentration of inhibitor needed to reduce the initial rate of hydrolysis of substrate by 50% (IC50) was calculated as the residual activity of β-lactamase at 486 nm using GraFit version 7 kinetics software package (Erithacus Software, Surrey, UK).
(§6) Using the methodology described above, examples of the current invention were evaluated for their ability to inhibit β-lactamase enzymes from all four Ambler classifications (A through D). […] NT=Not tested.

KPC-2 β-lactamase = target: T2, KPC-2 β-lactamase (Klebsiella pneumoniae, UniProt Q9F663); experiment: β-lactamase enzyme inhibition, KPC-2; format: biochemical; settings: imipenem substrate, 300 nm; 15 min at 37° C. preincubation; read-out: IC50 KPC-2 (Class A)
T2 construct: made in house; host or cells: E. coli BL21(DE3)
T2 sequence (Q9F663 25-293, looked up): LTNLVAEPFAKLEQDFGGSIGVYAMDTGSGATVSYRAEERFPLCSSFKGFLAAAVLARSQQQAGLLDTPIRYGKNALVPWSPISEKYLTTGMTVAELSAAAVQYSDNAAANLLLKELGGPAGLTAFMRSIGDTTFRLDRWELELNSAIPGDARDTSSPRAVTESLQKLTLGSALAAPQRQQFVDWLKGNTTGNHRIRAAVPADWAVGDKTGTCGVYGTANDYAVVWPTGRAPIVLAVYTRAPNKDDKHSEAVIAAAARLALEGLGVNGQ
Description: as §4, §5, §6

[3] = target: T3, VIM-2 metallo β-lactamase (Pseudomonas aeruginosa, UniProt Q9K2N0); experiment: β-lactamase enzyme inhibition, VIM-2; format: biochemical; settings: Nitrocefin 100 μM, 486 nm; 15 min at 37° C. preincubation; read-out: IC50 VIM-2 (Class B)
T3 construct: made in house; host or cells: E. coli BL21(DE3)
Description: For VIM-2 metallo β-lactamase, the procedure was identical with the following exceptions, first the protein was not pH adjusted to pH 5 with 50 mM sodium acetate. Second, the chromatography step was changed to a 5 ml Q sepharose anion exchange column pre-equilibrated with 50 mM Hepes pH 7.5, and elution of the protein was achieved by a linear gradient of NaCl (0-600 mM). Finally, the VIM-2 purification required a second run (3rd step) on the Q sepharose anion exchange column to achieve acceptable purity (>90%).
as §5, §6

p99 AmpC β-lactamase = target: T4, p99 AmpC β-lactamase (Enterobacter cloacae, UniProt P05364); experiment: β-lactamase enzyme inhibition, p99 AmpC; format: biochemical
T4 construct: made in house; host or cells: E. coli BL21(DE3)
T4 sequence (P05364 21-381): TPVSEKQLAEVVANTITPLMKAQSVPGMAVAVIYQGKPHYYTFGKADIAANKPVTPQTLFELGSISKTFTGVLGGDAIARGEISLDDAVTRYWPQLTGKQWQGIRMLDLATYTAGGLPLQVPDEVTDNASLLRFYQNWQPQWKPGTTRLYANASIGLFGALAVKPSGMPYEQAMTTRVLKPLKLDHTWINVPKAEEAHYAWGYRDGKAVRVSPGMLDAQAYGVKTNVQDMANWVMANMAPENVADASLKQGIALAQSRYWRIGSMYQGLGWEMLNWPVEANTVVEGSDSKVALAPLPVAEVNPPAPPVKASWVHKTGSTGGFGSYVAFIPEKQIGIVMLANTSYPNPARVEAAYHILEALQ
Description: as §4, §5
Using the methodology described above, examples of the current invention were evaluated for their ability to inhibit β-lactamase enzymes from all four Ambler classifications (A through D).

[4] = test system: K. pneumoniae 156319 expressing KPC-3; experiment: broth microdilution MIC, K. pneumoniae KPC-3; format: cell-based; settings: Fixed Mero (meropenem) 4 μg/mL
From the text: as §1, §2, §3

[5] = test system: K. pneumoniae A-1797 expressing KPC-2 and VIM-4; experiment: broth microdilution MIC, K. pneumoniae KPC-2 and VIM-4; format: cell-based; settings: Fixed Mero (meropenem) 4 μg/mL
From the text: as §1, §2, §3

Row | Structure (SMILES) | MIC ([1]; Escherichia coli, read-out: MIC alone) [mg/L] | MIC alone ([2]; partner antibiotic alone, E. cloacae expressing Class C P99) [mg/L] | IC50 (SHV-5 β-lactamase) [µM] | IC50 (KPC-2 β-lactamase) [µM] | IC50 [3] [µM] | IC50 (p99 AmpC β-lactamase) [µM] | MIC of exemplary compounds in presence of fixed β-lactams, E. coli ESBL4 CTX-M-15 [1] | MIC of exemplary compounds in presence of fixed β-lactams, E. cl. 144200 p99 AmpC [2] | MIC of exemplary compounds in presence of fixed β-lactams, K.P. 156319 KPC-3 [4] | MIC of exemplary compounds in presence of fixed β-lactams, K.P. A-1797 KPC-2 VIM-4 [5]
1 | CC(C)(O/N=C(\C(=O)N[C@@H]1C(=O)N2C(C(=O)[O-])=C(C[n+]3ccccc3)CS[C@H]12)c1csc(N)n1)C(=O)O [Ceftazidime, ceftazidime, reference compound] | > 128 | 128 | – | – | – | – | – | – | – | –
2 | NS(=O)(=O)CCCC(=O)N[C@H]1Cc2cccc(C(=O)O)c2OB1O [Example 53, (R)-2-Hydroxy-3-(4-sulfamoyl-butyrylamino)-3,4-dihydro-2H-benzo[e][1,2]oxaborinine-8-carboxylic acid] | – | – | < 0.1 | < 0.1 | 10 to 100 | < 0.1 | C (C represents the MIC in the presence of ≤4 g/mL of a β-lactamase inhibitor) | C (C represents the MIC in the presence of ≤4 g/mL of a β-lactamase inhibitor) | C (C represents the MIC in the presence of ≤4 g/mL of a β-lactamase inhibitor) | B (B represents the MIC in the presence of between 8 and 32 g/mL of a β-lactamase inhibitor)
3 | CS(=O)(=O)NCCCC(=O)N[C@H]1Cc2cccc(C(=O)O)c2OB1O [Example 57, (R)-2-Hydroxy-3-(4-methanesulfonylamino-butyrylamino)-3,4-dihydro-2H-benzo[e][1,2]oxaborinine-8-carboxylic acid] | – | – | < 0.1 | < 0.1 | 1 to 10 | < 0.1 | C (C represents the MIC in the presence of ≤4 g/mL of a β-lactamase inhibitor) | – | C (C represents the MIC in the presence of ≤4 g/mL of a β-lactamase inhibitor) | B (B represents the MIC in the presence of between 8 and 32 g/mL of a β-lactamase inhibitor)
4 | CNS(=O)(=O)CCCC(=O)N[C@H]1Cc2cccc(C(=O)O)c2OB1O [Example 58, (R)-2-Hydroxy-3-(4-methylsulfamoyl-butyrylamino)-3,4-dihydro-2H-benzo[e][1,2]oxaborinine-8-carboxylicacid] | – | – | < 0.1 | < 0.1 | 1 to 10 | < 0.1 | C (C represents the MIC in the presence of ≤4 g/mL of a β-lactamase inhibitor) | – | C (C represents the MIC in the presence of ≤4 g/mL of a β-lactamase inhibitor) | B (B represents the MIC in the presence of between 8 and 32 g/mL of a β-lactamase inhibitor)
5 | CS(=O)(=O)CCCC(=O)N[C@H]1Cc2cccc(C(=O)O)c2OB1O [Example 59, (R)-2-Hydroxy-3-(4-methanesulfonyl-butyrylamino)-3,4-dihydro-2H-benzo[e][1,2]oxaborinine-8-carboxylic acid] | – | – | < 0.1 | < 0.1 | 1 to 10 | < 0.1 | C (C represents the MIC in the presence of ≤4 g/mL of a β-lactamase inhibitor) | – | C (C represents the MIC in the presence of ≤4 g/mL of a β-lactamase inhibitor) | B (B represents the MIC in the presence of between 8 and 32 g/mL of a β-lactamase inhibitor)
6 | CC(O)CCC(=O)N[C@H]1Cc2cccc(C(=O)O)c2OB1O (stereo partly drawn) [Example 63, (R)-2-Hydroxy-3-(4-hydroxy-pentanoylamino)-3,4-dihydro-2H-benzo[e][1,2]oxaborinine-8-carboxylic acid] | – | – | – | – | – | – | C (C represents the MIC in the presence of ≤4 g/mL of a β-lactamase inhibitor) | C (C represents the MIC in the presence of ≤4 g/mL of a β-lactamase inhibitor) | C (C represents the MIC in the presence of ≤4 g/mL of a β-lactamase inhibitor) | B (B represents the MIC in the presence of between 8 and 32 g/mL of a β-lactamase inhibitor)
7 | O=C(Cc1ccncc1)N[C@H]1Cc2cccc(C(=O)O)c2OB1O [Example 65, (R)-2-Hydroxy-3-(2-pyridin-4-yl-acetylamino)-3,4-dihydro-2H-benzo[e][1,2]oxaborinine-8-carboxylic acid] | – | – | < 0.1 | < 0.1 | – | < 0.1 | C (C represents the MIC in the presence of ≤4 g/mL of a β-lactamase inhibitor) | C (C represents the MIC in the presence of ≤4 g/mL of a β-lactamase inhibitor) | C (C represents the MIC in the presence of ≤4 g/mL of a β-lactamase inhibitor) | C (C represents the MIC in the presence of ≤4 g/mL of a β-lactamase inhibitor)
